In PubChem BioAssay AID256 (DTP/NCI, 2004):
Values joined by “and” are separate entries in the source; they are usually repeats but may differ in a detail not shown here. Identical values can stand only once. Inconclusive results and toxic doses are left out. How the source made its calls: active means survival T/C of 150% or more; inactive means T/C below 125% in these data.

System: CD2F1 mice, L1210 leukemia ip, survival T/C
Test: NCI In Vivo Anticancer Drug Screen. Data for tumor model L1210 Leukemia (intraperitoneal) in CD2F1 (CDF1) mice
Settings: endpoint: mean survival time, higher = longer survival
Outline: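 Each value reflects a quotient of treated over vehicle control outcomes in mice with a transplanted tumor.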

[1] = dose: 75.0 mg/kg/injection, schedule: Q01DX001 (ip), vehicle: saline
[2] = dose: 150.0 mg/kg/injection, schedule: Q01DX001 (ip), vehicle: saline
[3] = dose: 300.0 mg/kg/injection, schedule: Q01DX001 (ip), vehicle: saline
[4] = dose: 100.0 mg/kg/injection, schedule: Q01DX001 (ip), vehicle: saline with Tween-80
[5] = dose: 200.0 mg/kg/injection, schedule: Q01DX001 (ip), vehicle: saline with Tween-80
[6] = dose: 100.0 mg/kg/injection, schedule: Q01DX009 (ip), vehicle: saline with Tween-80
[7] = dose: 100.0 mg/kg/injection, schedule: Q04DX003 (ip), vehicle: saline with Tween-80
[8] = dose: 200.0 mg/kg/injection, schedule: Q04DX003 (ip), vehicle: saline with Tween-80
[9] = dose: 400.0 mg/kg/injection, schedule: Q04DX003 (ip), vehicle: saline with Tween-80
[10] = dose: 12.5 mg/kg/injection, schedule: Q04DX003 (ip), vehicle: saline with Tween-80
[11] = dose: 25.0 mg/kg/injection, schedule: Q01DX009 (ip), vehicle: saline with Tween-80
[12] = dose: 25.0 mg/kg/injection, schedule: Q04DX003 (ip), vehicle: saline with Tween-80
[13] = dose: 50.0 mg/kg/injection, schedule: Q01DX009 (ip), vehicle: saline with Tween-80
[14] = dose: 50.0 mg/kg/injection, schedule: Q04DX003 (ip), vehicle: saline with Tween-80

Measured: T/C

CCNC1=CC(=O)CC(C)(C)C1
inactive: [1] 106 % of control | [2] 101 % of control | [3] 109 % of control

C1C2OC2CC2OC12 (centres undefined)
inactive: [4] 97 % of control | [5] 97 % of control | dose: 400.0 mg/kg/injection, schedule: Q01DX001 (ip), vehicle: saline with Tween-80 98 % of control

CO[C@]12[C@@H](COC(N)=O)C3=C(C(=O)C(C)=C(NCc4ccco4)C3=O)N1C[C@@H]1[C@H]2N1C (some centres undefined)
inactive: dose: 1.5 mg/kg/injection, schedule: Q01DX001 (ip), vehicle: distilled water + Tween-80 104 % of control | dose: 3.0 mg/kg/injection, schedule: Q01DX001 (ip), vehicle: distilled water + Tween-80 103 % of control and 104 % of control | dose: 6.0 mg/kg/injection, schedule: Q01DX001 (ip), vehicle: distilled water + Tween-80 110 % of control and 111 % of control | dose: 12.0 mg/kg/injection, schedule: Q01DX001 (ip), vehicle: distilled water + Tween-80 122 % of control | dose: 36.0 mg/kg/injection, schedule: Q01DX001 (ip), vehicle: distilled water + Tween-80 121 % of control

O=C(/C=C/c1ccccc1)Nc1cccc2ccccc12
inactive: dose: 100.0 mg/kg/injection, schedule: Q04DX002 (ip), vehicle: saline with Tween-80 90 % of control | dose: 200.0 mg/kg/injection, schedule: Q04DX002 (ip), vehicle: saline with Tween-80 105 % of control | dose: 400.0 mg/kg/injection, schedule: Q04DX002 (ip), vehicle: saline with Tween-80 94 % of control

NC(CCC(=O)NCc1ccc(S(=O)(=O)F)cc1)C(=O)O (centres undefined)
inactive: dose: 50.0 mg/kg/injection, schedule: Q01DX009 (ip), vehicle: saline 92 % of control | dose: 100.0 mg/kg/injection, schedule: Q01DX009 (ip), vehicle: saline 96 % of control | dose: 200.0 mg/kg/injection, schedule: Q01DX009 (ip), vehicle: saline 92 % of control

O=S(=O)(c1cc(Cl)ccc1O)c1cc(Cl)ccc1O
inactive: dose: 100.0 mg/kg/injection, schedule: Q01DX001 (ip), vehicle: saline 103 % of control | dose: 200.0 mg/kg/injection, schedule: Q01DX001 (ip), vehicle: saline 100 % of control | dose: 400.0 mg/kg/injection, schedule: Q01DX001 (ip), vehicle: saline 100 % of control

CCCCCCCCCCCCCCCCCCCCCC(O)(CC)CC
inactive: [6] 97 % of control | [7] 94 % of control | dose: 200.0 mg/kg/injection, schedule: Q01DX009 (ip), vehicle: saline with Tween-80 94 % of control | [8] 94 % of control | dose: 400.0 mg/kg/injection, schedule: Q01DX009 (ip), vehicle: saline with Tween-80 100 % of control | [9] 95 % of control

CC(C)(C)C(C)(O)CN (centres undefined)
inactive: dose: 100.0 mg/kg/injection, schedule: Q04DX003 (ip), vehicle: saline 95 % of control | dose: 200.0 mg/kg/injection, schedule: Q04DX003 (ip), vehicle: saline 101 % of control | dose: 400.0 mg/kg/injection, schedule: Q04DX003 (ip), vehicle: saline 92 % of control

O=C(SC(=O)c1ccccc1)c1ccccc1
inactive: [7] 97 % of control | [8] 100 % of control | [9] 94 % of control

O=C(O)c1c(F)c(F)c2c(F)c(F)c(F)c(F)c2c1F
inactive: [7] 93 % of control | [8] 92 % of control

CCCCCCCCCCCCC/C=N/NC(=O)c1ccc[n+](C)c1
inactive: [4] 93 % of control | [5] 98 % of control

CCOC(=O)Nc1cc(NCC(=O)CCc2ccccc2)c([N+](=O)[O-])c(N)n1
inactive: dose: 100.0 mg/kg/injection, schedule: Q01DX001 (ip), vehicle: Klucel (hydroxypropylcellulose) (HPC) 93 % of control | dose: 200.0 mg/kg/injection, schedule: Q01DX001 (ip), vehicle: Klucel (hydroxypropylcellulose) (HPC) 91 % of control | dose: 400.0 mg/kg/injection, schedule: Q01DX001 (ip), vehicle: Klucel (hydroxypropylcellulose) (HPC) 91 % of control

CCC(C)C(C(=O)O)C(=O)O (centres undefined)
inactive: [1] 100 % of control | [2] 100 % of control | [3] 102 % of control

COC(=O)N1c2ccccc2C=CC1C#N (centres undefined)
inactive: dose: 6.25 mg/kg/injection, schedule: Q01DX009 (ip), vehicle: saline with Tween-80 89 % of control | dose: 12.5 mg/kg/injection, schedule: Q01DX009 (ip), vehicle: saline with Tween-80 103 % of control | [10] 97 % of control | [11] 95 % of control | [12] 97 % of control | [13] 98 % of control | [14] 97 % of control | [6] 101 % of control | [7] 98 % of control | [8] 95 % of control

Cc1cn(C2CC(O)C(COC(=O)Nc3cccc4ccccc34)O2)c(=O)[nH]c1=O (centres undefined)
inactive: dose: 12.5 mg/kg/injection, schedule: Q01DX005 (ip), vehicle: other 100 % of control | dose: 25.0 mg/kg/injection, schedule: Q01DX005 (ip), vehicle: other 100 % of control | dose: 50.0 mg/kg/injection, schedule: Q01DX005 (ip), vehicle: other 90 % of control | dose: 100.0 mg/kg/injection, schedule: Q01DX005 (ip), vehicle: other 94 % of control | dose: 200.0 mg/kg/injection, schedule: Q01DX005 (ip), vehicle: other 94 % of control

CC(=O)c1cc2c(cc1C(C)C)CC[C@H]1[C@](C)(C#N)CCC[C@]21C
inactive: [11] 104 % of control | [13] 90 % of control | [6] 98 % of control | [7] 87 % of control

Nc1cccc(OCc2ccc([N+](=O)[O-])cc2)c1
inactive: dose: 100.0 mg/kg/injection, schedule: Q04DX002 (ip), vehicle: Klucel (hydroxypropylcellulose) (HPC) 86 % of control | dose: 200.0 mg/kg/injection, schedule: Q04DX002 (ip), vehicle: Klucel (hydroxypropylcellulose) (HPC) 107 % of control | dose: 400.0 mg/kg/injection, schedule: Q04DX002 (ip), vehicle: Klucel (hydroxypropylcellulose) (HPC) 95 % of control

S=C(NC1CCCCC1)N1CCC(CCCC2CCN(C(=S)NC3CCCCC3)CC2)CC1
inactive: [7] 87 % of control | [8] 94 % of control | [9] 102 % of control

Cc1ccccc1Nc1c2ccccc2nc2ccccc12
inactive: [10] 98 % of control | [12] 104 % of control | [14] 87 % of control

CCOC(=O)C(C(C)=O)C(=O)CCc1ccccc1 (centres undefined)
inactive: [7] 99 % of control | [8] 100 % of control | [9] 103 % of control

CCOC(=O)C(C)C(C)(O)c1ccccc1 (centres undefined)
inactive: [7] 97 % of control | [8] 97 % of control | [9] 98 % of control

COc1ccc(OC)c(C2N(C)CCCN2C)c1
inactive: dose: 6.25 mg/kg/injection, schedule: Q01DX009 (ip), vehicle: saline sonified 90 % of control | dose: 6.25 mg/kg/injection, schedule: Q04DX003 (ip), vehicle: saline sonified 100 % of control | dose: 12.5 mg/kg/injection, schedule: Q01DX009 (ip), vehicle: saline sonified 88 % of control | dose: 12.5 mg/kg/injection, schedule: Q04DX003 (ip), vehicle: saline sonified 101 % of control | dose: 25.0 mg/kg/injection, schedule: Q01DX009 (ip), vehicle: saline sonified 103 % of control | dose: 25.0 mg/kg/injection, schedule: Q04DX003 (ip), vehicle: saline sonified 100 % of control

Nc1nc(N)c(NC=O)c(N)n1
inactive: dose: 12.5 mg/kg/injection, schedule: Q01DX009 (ip), vehicle: water 101 % of control | dose: 25.0 mg/kg/injection, schedule: Q01DX009 (ip), vehicle: water 101 % of control | dose: 50.0 mg/kg/injection, schedule: Q01DX009 (ip), vehicle: water 106 % of control | dose: 100.0 mg/kg/injection, schedule: Q01DX009 (ip), vehicle: water 103 % of control | dose: 200.0 mg/kg/injection, schedule: Q01DX009 (ip), vehicle: water 103 % of control

N#CC(c1cccnc1)N1CCOCC1 (centres undefined)
inactive: [11] 98 % of control | [13] 103 % of control
